Experiments:
CBP = target: T1, CBP (Homo sapiens, UniProt Q92793); experiment: CBP degradation, HiBit technology in A549 CBP HiBit cells (24 h); assay type: cell-based; conditions: 24 hrs post treatment
T1 construct: host or cells: A549 CBP HiBit cells
Method in brief: (§1)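 Endogenously HiBiT-tagged A549 cells are plated, left overnight, then treated with a compound dilution series at 37 °C and 5% CO2. At the set time, lytic detection buffer is added and plates are shaken 10 min at room temperature before luminescence is measured to derive potency and Dmax.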

p300 = target: T2, p300 (Homo sapiens, UniProt Q09472); experiment: P300 degradation, HiBit technology in A549 P300 HiBit cells (2 h); assay type: cell-based; conditions: 2 hrs post treatment; for Dmax: A549, A549 P300 HiBit cells; for DC50: A549 P300 HiBit cells
T2 construct: host or cells: A549 P300 HiBit cells
T2 sequence (Q09472 whole entry): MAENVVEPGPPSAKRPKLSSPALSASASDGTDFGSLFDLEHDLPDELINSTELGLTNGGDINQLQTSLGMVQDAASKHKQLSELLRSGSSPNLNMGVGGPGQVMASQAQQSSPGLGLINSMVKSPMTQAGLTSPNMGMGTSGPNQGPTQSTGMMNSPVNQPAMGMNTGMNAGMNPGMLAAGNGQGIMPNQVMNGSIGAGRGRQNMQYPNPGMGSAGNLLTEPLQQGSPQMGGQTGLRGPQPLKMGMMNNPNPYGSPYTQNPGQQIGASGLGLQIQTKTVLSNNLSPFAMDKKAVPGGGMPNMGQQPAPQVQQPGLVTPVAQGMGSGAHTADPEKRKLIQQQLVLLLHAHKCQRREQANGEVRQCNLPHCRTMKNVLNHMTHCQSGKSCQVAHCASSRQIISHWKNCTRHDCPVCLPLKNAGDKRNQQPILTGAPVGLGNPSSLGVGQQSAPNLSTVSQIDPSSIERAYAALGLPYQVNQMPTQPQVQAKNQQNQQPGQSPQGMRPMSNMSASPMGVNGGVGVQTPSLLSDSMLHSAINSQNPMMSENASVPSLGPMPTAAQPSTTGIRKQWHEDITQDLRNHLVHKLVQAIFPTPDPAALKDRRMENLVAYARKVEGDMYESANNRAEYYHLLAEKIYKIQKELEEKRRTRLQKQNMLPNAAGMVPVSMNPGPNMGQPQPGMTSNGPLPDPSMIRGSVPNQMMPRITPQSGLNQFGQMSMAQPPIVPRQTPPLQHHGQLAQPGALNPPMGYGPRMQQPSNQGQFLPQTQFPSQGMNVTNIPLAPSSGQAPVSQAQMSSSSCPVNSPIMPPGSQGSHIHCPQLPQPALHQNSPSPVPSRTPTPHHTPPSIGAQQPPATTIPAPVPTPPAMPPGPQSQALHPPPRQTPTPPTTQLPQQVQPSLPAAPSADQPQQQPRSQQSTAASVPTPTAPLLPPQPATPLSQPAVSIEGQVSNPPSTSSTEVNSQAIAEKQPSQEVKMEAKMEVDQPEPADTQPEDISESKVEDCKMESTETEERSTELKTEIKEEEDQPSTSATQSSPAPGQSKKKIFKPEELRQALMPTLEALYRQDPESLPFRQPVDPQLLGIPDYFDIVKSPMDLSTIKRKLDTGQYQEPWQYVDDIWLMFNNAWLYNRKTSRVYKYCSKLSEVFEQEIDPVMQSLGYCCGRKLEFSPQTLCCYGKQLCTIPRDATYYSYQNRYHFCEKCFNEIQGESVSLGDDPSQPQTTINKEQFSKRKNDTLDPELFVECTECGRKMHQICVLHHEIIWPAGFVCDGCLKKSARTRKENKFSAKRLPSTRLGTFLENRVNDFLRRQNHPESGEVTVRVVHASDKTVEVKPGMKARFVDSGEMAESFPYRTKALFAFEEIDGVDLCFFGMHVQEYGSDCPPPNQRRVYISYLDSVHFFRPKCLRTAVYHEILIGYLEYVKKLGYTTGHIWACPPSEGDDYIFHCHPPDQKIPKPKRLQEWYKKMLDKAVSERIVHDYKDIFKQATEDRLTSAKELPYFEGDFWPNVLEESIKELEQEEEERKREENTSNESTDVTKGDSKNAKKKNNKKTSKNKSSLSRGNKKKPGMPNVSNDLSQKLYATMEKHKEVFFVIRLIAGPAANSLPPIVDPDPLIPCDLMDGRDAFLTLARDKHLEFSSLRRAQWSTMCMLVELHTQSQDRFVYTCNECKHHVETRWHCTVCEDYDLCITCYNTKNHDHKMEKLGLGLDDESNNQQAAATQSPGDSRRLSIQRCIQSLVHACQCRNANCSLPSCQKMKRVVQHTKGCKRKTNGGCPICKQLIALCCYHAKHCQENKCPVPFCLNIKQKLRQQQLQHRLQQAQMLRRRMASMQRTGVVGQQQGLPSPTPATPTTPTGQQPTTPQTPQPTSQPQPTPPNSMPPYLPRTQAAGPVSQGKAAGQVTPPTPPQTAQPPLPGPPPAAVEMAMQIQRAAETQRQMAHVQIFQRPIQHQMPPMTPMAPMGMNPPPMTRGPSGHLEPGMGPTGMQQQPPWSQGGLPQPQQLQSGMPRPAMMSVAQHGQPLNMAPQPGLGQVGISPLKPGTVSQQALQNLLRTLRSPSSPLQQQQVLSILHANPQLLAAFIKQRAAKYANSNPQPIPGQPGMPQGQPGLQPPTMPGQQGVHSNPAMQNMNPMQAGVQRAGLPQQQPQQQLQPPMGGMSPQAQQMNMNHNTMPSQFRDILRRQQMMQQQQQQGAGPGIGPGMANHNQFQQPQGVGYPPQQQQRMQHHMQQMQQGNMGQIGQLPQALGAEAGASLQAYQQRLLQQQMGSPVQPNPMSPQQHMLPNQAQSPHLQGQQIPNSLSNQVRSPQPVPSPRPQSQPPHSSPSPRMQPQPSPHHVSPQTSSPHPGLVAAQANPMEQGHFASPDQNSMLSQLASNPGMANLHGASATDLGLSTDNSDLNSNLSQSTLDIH
Method in brief: as §1

T1 sequence (Q92793 whole entry): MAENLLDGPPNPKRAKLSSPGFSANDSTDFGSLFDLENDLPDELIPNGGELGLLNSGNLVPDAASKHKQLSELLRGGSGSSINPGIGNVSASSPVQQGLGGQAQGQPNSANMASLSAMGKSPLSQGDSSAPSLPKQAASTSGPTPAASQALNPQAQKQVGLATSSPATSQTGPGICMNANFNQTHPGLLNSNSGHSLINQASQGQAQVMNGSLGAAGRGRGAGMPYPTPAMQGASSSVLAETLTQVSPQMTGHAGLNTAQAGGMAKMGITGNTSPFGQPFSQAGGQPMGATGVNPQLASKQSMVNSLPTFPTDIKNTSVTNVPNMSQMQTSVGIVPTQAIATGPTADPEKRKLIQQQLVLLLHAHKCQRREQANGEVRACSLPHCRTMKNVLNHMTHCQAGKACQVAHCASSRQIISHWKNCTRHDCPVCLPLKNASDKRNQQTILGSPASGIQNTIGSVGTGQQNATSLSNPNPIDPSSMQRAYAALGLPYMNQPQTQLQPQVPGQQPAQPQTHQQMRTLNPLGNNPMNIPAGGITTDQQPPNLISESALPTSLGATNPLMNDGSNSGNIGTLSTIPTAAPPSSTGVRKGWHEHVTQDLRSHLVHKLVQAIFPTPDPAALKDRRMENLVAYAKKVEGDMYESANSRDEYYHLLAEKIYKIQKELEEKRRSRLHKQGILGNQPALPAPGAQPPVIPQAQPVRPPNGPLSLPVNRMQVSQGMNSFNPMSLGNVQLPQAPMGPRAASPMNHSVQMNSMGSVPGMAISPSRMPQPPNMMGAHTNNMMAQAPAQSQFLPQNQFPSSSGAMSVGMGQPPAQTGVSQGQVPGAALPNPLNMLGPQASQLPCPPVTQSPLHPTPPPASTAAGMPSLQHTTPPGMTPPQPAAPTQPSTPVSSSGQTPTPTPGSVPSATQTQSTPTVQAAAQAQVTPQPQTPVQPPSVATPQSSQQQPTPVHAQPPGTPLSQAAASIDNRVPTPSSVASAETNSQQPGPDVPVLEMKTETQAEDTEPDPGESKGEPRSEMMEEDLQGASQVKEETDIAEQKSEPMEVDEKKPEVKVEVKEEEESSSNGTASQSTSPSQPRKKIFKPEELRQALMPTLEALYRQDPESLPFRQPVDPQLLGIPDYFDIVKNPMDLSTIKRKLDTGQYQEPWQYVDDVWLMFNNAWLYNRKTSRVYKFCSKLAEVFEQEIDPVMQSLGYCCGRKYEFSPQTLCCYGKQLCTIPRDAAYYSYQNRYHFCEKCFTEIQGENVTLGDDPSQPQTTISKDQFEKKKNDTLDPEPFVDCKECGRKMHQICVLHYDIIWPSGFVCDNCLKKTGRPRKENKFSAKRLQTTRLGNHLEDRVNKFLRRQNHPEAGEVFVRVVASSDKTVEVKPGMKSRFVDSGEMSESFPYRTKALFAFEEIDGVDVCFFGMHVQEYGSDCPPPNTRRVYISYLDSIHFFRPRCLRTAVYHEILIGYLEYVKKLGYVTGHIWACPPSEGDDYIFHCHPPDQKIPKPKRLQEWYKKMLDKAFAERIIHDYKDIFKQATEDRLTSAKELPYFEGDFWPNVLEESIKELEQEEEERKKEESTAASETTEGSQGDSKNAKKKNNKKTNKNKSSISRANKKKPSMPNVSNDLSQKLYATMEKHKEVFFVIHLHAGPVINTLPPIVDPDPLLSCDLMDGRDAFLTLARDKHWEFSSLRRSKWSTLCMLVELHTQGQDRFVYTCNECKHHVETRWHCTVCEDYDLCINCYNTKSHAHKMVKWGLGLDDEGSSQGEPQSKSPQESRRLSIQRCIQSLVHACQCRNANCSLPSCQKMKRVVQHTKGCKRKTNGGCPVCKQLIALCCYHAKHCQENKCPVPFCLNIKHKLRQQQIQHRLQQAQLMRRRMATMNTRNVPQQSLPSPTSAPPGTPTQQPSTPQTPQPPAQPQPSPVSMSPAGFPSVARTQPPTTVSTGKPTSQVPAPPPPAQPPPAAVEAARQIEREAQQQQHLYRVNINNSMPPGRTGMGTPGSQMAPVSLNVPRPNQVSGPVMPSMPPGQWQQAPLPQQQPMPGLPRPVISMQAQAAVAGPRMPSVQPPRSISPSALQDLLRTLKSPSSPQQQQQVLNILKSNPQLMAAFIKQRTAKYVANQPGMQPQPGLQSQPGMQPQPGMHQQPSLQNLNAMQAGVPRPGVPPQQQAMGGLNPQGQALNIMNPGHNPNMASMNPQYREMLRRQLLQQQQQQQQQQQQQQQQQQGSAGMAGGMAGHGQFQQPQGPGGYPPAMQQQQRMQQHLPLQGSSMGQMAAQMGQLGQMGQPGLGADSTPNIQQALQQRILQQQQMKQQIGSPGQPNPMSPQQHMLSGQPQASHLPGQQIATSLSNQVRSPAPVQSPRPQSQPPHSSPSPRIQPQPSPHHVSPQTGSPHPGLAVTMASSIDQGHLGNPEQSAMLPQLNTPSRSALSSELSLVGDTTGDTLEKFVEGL

## COc1nc(-c2cnc(C(=O)NCC#Cc3cc4c(C5CCC(=O)NC5=O)cccc4o3)c(C)c2)ncc1Nc1cc(C2CCOCC2)cc2c1cc(C)c(=O)n2C (stereo not shown) [Example B20, 5-(5-((1,3-dimethyl-2-oxo-7-(tetrahydro-2H-pyran-4-yl)-1,2-dihydroquinolin-5-yl)amino)-4-methoxypyrimidin-2-yl)-N-(3-(4-(2,6-dioxopiperidin-3-yl)benzofuran-2-yl)prop-2-yn-1-yl)-3-methylpicolinamide]
CBP
  DC50: > 1000 nM
  Dmax: < 20%
p300
  Dmax: > 80%
  DC50: 1 to 9.9 nM

## [2H]C1COCCC1([2H])c1cc(N2CCCc3nc(-c4ccc(C(=O)NCC#Cc5cc6c(C7CCC(=O)NC7=O)cccc6o5)nc4)ncc32)c2cc(C)c(=O)n(C)c2c1 (stereo not shown) [Example B23, 5-(5-(1,3-dimethyl-2-oxo-7-(tetrahydro-2H-pyran-4-yl-3,4-d2)-1,2-dihydroquinolin-5-yl)-5,6,7,8-tetrahydropyrido[3,2-d]pyrimidin-2-yl)-N-(3-(4-(2,6-dioxopiperidin-3-yl)benzofuran-2-yl)prop-2-yn-1-yl)picolinamide]
CBP
  DC50: 100 to 999 nM
  Dmax: < 20%
p300
  Dmax: > 80%
  DC50: 1 to 9.9 nM

## COc1cc(-c2ncc3c(n2)CCCN3c2cc(C3CCOCC3)cc3c2cc(C)c(=O)n3C)cnc1C(=O)NCC#Cc1ccc2occ(C3CCC(=O)NC3=O)c2c1 (stereo not shown) [Example B24, 5-(5-(1,3-dimethyl-2-oxo-7-(tetrahydro-2H-pyran-4-yl)-1,2-dihydroquinolin-5-yl)-5,6,7,8-tetrahydropyrido[3,2-d]pyrimidin-2-yl)-N-(3-(3-(2,6-dioxopiperidin-3-yl)benzofuran-5-yl)prop-2-yn-1-yl)-3-methoxypicolinamide]
CBP
  DC50: > 1000 nM
  Dmax: < 20%
p300
  Dmax: > 80%
  DC50: 1 to 9.9 nM

## CCN(CC)c1cc2c(cc(C)c(=O)n2C)c(N2CCCc3nc(-c4ccc(C(=O)NCC#Cc5cc6c(C7CCC(=O)NC7=O)nccc6o5)nc4)ncc32)n1 (stereo not shown) [Example B25, 5-(5-(7-(diethylamino)-1,3-dimethyl-2-oxo-1,2-dihydro-1,6-naphthyridin-5-yl)-5,6,7,8-tetrahydropyrido[3,2-d]pyrimidin-2-yl)-N-(3-(4-(2,6-dioxopiperidin-3-yl)furo[3,2-c]pyridin-2-yl)prop-2-yn-1-yl)picolinamide]
CBP
  DC50: 10 to 99 nM
  Dmax: 20 to 39%
p300
  Dmax: > 80%
  DC50: 1 to 9.9 nM

## Cc1cc(-c2ncc3c(n2)CCCN3c2nc(N3CC4CCC(C3)O4)cc3c2cc(C)c(=O)n3C)cnc1C(=O)NCC#Cc1ccc2occ(C3CCC(=O)NC3=O)c2c1 (stereo not shown) [Example B26, 5-(5-(7-(8-oxa-3-azabicyclo[3.2.1]octan-3-yl)-1,3-dimethyl-2-oxo-1,2-dihydro-1,6-naphthyridin-5-yl)-5,6,7,8-tetrahydropyrido [3,2-d]pyrimidin-2-yl)-N-(3-(3-(2,6-dioxopiperidin-3-yl)benzofuran-5-yl)prop-2-yn-1-yl)-3-methylpicolinamide]
CBP
  DC50: > 1000 nM
  Dmax: < 20%
p300
  Dmax: > 80%
  DC50: 1 to 9.9 nM

## Cc1cc2c(N3CCCc4nc(-c5ccc(C(=O)NCC#Cc6cc7c(C8CCC(=O)NC8=O)cccc7o6)nc5)ncc43)nc(N3CCOCC3)cc2n(C)c1=O (stereo not shown) [Example B28, 5-(5-(1,3-dimethyl-7-morpholino-2-oxo-1,2-dihydro-1,6-naphthyridin-5-yl)-5,6,7,8-tetrahydropyrido[3,2-d]pyrimidin-2-yl)-N-(3-(4-(2,6-dioxopiperidin-3-yl)benzofuran-2-yl)prop-2-yn-1-yl)picolinamide]
CBP
  DC50: 100 to 999 nM
  Dmax: < 20%
p300
  Dmax: > 80%
  DC50: 1 to 9.9 nM

## Cc1cc2c(N3CCCc4nc(-c5ccc(C(=O)NCC#Cc6cc7c([C@H]8CCC(=O)NC8=O)cccc7o6)nc5)ncc43)nc(N3CCOCC3)cc2n(C)c1=O [Example B29, (R)-5-(5-(1,3-dimethyl-7-morpholino-2-oxo-1,2-dihydro-1,6-naphthyridin-5-yl)-5,6,7,8-tetrahydropyrido[3,2-d]pyrimidin-2-yl)-N-(3-(4-(2,6-dioxopiperidin-3-yl)benzofuran-2-yl)prop-2-yn-1-yl)picolinamide]
CBP
  DC50: 100 to 999 nM
  Dmax: < 20%
p300
  Dmax: > 80%
  DC50: < 1 nM

## Cc1cc2c(N3CCN(C)c4nc(-c5ccc(C(=O)NCC#Cc6cc7c(C8CCC(=O)NC8=O)nccc7o6)nc5)ncc43)cccc2n(C)c1=O (stereo not shown) [Example B32, 5-(5-(1,3-dimethyl-2-oxo-1,2-dihydroquinolin-5-yl)-8-methyl-5,6,7,8-tetrahydropteridin-2-yl)-N-(3-(4-(2,6-dioxopiperidin-3-yl)furo[3,2-c]pyridin-2-yl)prop-2-yn-1-yl)picolinamide]
CBP
  DC50: 1 to 9.9 nM
  Dmax: 60 to 79%
p300
  Dmax: > 80%
  DC50: < 1 nM

## Cc1cc2c(N3CCCc4nc(-c5ccc(C(=O)NCC#Cc6cc7c(C8CCC(=O)NC8=O)nccc7o6)nc5)ncc43)nc(N3CCC3)cc2n(C)c1=O (stereo not shown) [Example B35, 5-(5-(7-(azetidin-1-yl)-1,3-dimethyl-2-oxo-1,2-dihydro-1,6-naphthyridin-5-yl)-5,6,7,8-tetrahydropyrido[3,2-d]pyrimidin-2-yl)-N-(3-(4-(2,6-dioxopiperidin-3-yl)furo[3,2-c]pyridin-2-yl)prop-2-yn-1-yl)picolinamide]
CBP
  DC50: 10 to 99 nM
  Dmax: 20 to 39%
p300
  Dmax: > 80%
  DC50: 1 to 9.9 nM

## Cc1cc2c(N3CCCc4nc(-c5ccc(C(=O)NCC#Cc6cc7c([C@H]8CCC(=O)NC8=O)cccc7o6)nc5)ncc43)cc(C3CCOCC3)cc2n(C)c1=O [Example B38, (R)-5-(5-(1,3-dimethyl-2-oxo-7-(tetrahydro-2H-pyran-4-yl)-1,2-dihydroquinolin-5-yl)-5,6,7,8-tetrahydropyrido[3,2-d]pyrimidin-2-yl)-N-(3-(4-(2,6-dioxopiperidin-3-yl)benzofuran-2-yl)prop-2-yn-1-yl)picolinamide]
CBP
  DC50: > 1000 nM
  Dmax: < 20%
p300
  Dmax: > 80%
  DC50: < 1 nM

## Cc1cc2c(N3CCCc4nc(-c5ccc(C(=O)NCC#Cc6cc7c([C@@H]8CCC(=O)NC8=O)cccc7o6)nc5)ncc43)cc(C3CCOCC3)cc2n(C)c1=O [Example B39, (S)-5-(5-(1,3-dimethyl-2-oxo-7-(tetrahydro-2H-pyran-4-yl)-1,2-dihydroquinolin-5-yl)-5,6,7,8-tetrahydropyrido[3,2-d]pyrimidin-2-yl)-N-(3-(4-(2,6-dioxopiperidin-3-yl)benzofuran-2-yl)prop-2-yn-1-yl)picolinamide]
CBP
  DC50: > 1000 nM
  Dmax: < 20%
p300
  Dmax: > 80%
  DC50: 1 to 9.9 nM

## Cc1cc(-c2ncc3c(n2)CCCN3c2cc(C3CCOCC3)cc3c2cc(C)c(=O)n3C)cnc1C(=O)NCC#Cc1ccc2occ(C3CCC(=O)NC3=O)c2c1 (stereo not shown) [Example B42, 5-(5-(1,3-dimethyl-2-oxo-7-(tetrahydro-2H-pyran-4-yl)-1,2-dihydroquinolin-5-yl)-5,6,7,8-tetrahydropyrido[3,2-d]pyrimidin-2-yl)-N-(3-(3-(2,6-dioxopiperidin-3-yl)benzofuran-5-yl)prop-2-yn-1-yl)-3-methylpicolinamide]
CBP
  DC50: > 1000 nM
  Dmax: < 20%
p300
  Dmax: 60 to 79%
  DC50: 1 to 9.9 nM

## Cc1cc2c(N3CCCc4nc(-c5ccc(C(=O)NCC#Cc6cc7c(C8CCC(=O)NC8=O)cccc7o6)nc5)ncc43)cc(C3CCOCC3)nc2n(C)c1=O (stereo not shown) [Example B47, 5-(5-(6,8-dimethyl-7-oxo-2-(tetrahydro-2H-pyran-4-yl)-7,8-dihydro-1,8-naphthyridin-4-yl)-5,6,7,8-tetrahydropyrido[3,2-d]pyrimidin-2-yl)-N-(3-(4-(2,6-dioxopiperidin-3-yl)benzofuran-2-yl)prop-2-yn-1-yl)picolinamide]
CBP
  DC50: > 1000 nM
  Dmax: < 20%
p300
  Dmax: > 80%
  DC50: < 1 nM

## Cc1cc2c(N3CCCc4nc(-c5ccc(C(=O)NCC#Cc6cc7c([C@H]8CCC(=O)NC8=O)cccc7o6)nc5)ncc43)cc(C3CCOCC3)nc2n(C)c1=O [Example B48, (R)-5-(5-(6,8-dimethyl-7-oxo-2-(tetrahydro-2H-pyran-4-yl)-7,8-dihydro-1,8-naphthyridin-4-yl)-5,6,7,8-tetrahydropyrido[3,2-d]pyrimidin-2-yl)-N-(3-(4-(2,6-dioxopiperidin-3-yl)benzofuran-2-yl)prop-2-yn-1-yl)picolinamide]
CBP
  DC50: 100 to 999 nM
  Dmax: < 20%
p300
  Dmax: > 80%
  DC50: < 1 nM

## Cc1cc2c(N3CCCc4nc(-c5ccc(C(=O)NCC#Cc6cc7c([C@@H]8CCC(=O)NC8=O)cccc7o6)nc5)ncc43)cc(C3CCOCC3)nc2n(C)c1=O [Example B49, (S)-5-(5-(6,8-dimethyl-7-oxo-2-(tetrahydro-2H-pyran-4-yl)-7,8-dihydro-1,8-naphthyridin-4-yl)-5,6,7,8-tetrahydropyrido[3,2-d]pyrimidin-2-yl)-N-(3-(4-(2,6-dioxopiperidin-3-yl)benzofuran-2-yl)prop-2-yn-1-yl)picolinamide]
CBP
  DC50: > 1000 nM
  Dmax: < 20%
p300
  Dmax: > 80%
  DC50: 1 to 9.9 nM

## Cc1cc2c(N3CCCc4nc(-c5ccc(C(=O)NCC#Cc6ccc7occ(C8CCC(=O)NC8=O)c7c6)nc5)ncc43)nc(N3CCOCC3)nc2n(C)c1=O (stereo not shown) [Example B51, 5-(5-(6,8-dimethyl-2-morpholino-7-oxo-7,8-dihydropyrido[2,3-d]pyrimidin-4-yl)-5,6,7,8-tetrahydropyrido[3,2-d]pyrimidin-2-yl)-N-(3-(3-(2,6-dioxopiperidin-3-yl)benzofuran-5-yl)prop-2-yn-1-yl)picolinamide]
CBP
  DC50: > 1000 nM
  Dmax: < 20%
p300
  Dmax: 40 to 59%
  DC50: 1 to 9.9 nM

Reference: US20250114345A1, “COMPOUNDS AND COMPOSITIONS AS CBP/P300 DEGRADERS AND USES THEREOF” (Oncopia Therapeutics, Inc. d/b/a/ SK Life Science Labs, priority 2023, published 2025)
